Measurements from patent publication US20120309717A1, “COMPOUNDS, METHODS AND PHARMACEUTICAL COMPOSITIONS FOR INHIBITING PARP” (EISAI INC., priority 2003, published 2012).

What was measured:
[1] = test system: regional heart ischemia reperfusion; test: regional heart ischemia reperfusion model (LAD occlusion); assay type: in vivo, rat; details: iv bolus pre-ischemia plus iv bolus post-ischemia, 10 to 40 mg/kg; 30 min LAD occlusion, 2 hr reperfusion; male SD rats
Method: In the present study, we investigated the effects of 43 in the regional heart ischemia reperfusion model. In regional heart ischemia model, sodium thiopental-anaesthetized male SD rats were subjected to occlusion of LAD coronary artery for 30 min followed by 2 hr of reperfusion. The infarct size was quantified by TTC staining method and expressed as percent of area at risk.
The left anterior descending coronary artery of Sprague-Dawley rats was occluded for 30 minutes. This was followed by 90-120 minutes of blood reflow. PARP inhibitor compounds were given intraperitoneally (ip), 60 minutes pre-, or intravenously (iv), 15 or 5 minutes pre- and 25 minutes post-onset of ischemia. Infarct size was determined by TTC staining and the risk area was determined via blue dye injection.

[2] = test system: murine melanoma cell line B16; test: colony-formation assay, B16; assay type: cell-based
Method: (§1) The murine melanoma cell line B16 of C57BL/6J (H-2^b/H-2^b) origin and the lymphoma cell line L5178Y of DBA/2 (H-2^d/H-2^d) origin (ATCC, Manassas, Va.) were cultured in RPMI-1640 containing 10% fetal calf serum (Invitrogen, Milan, Italy), 2 mM L-glutamine, 100 units/ml penicillin and 100 μg/ml streptomycin (Flow Laboratories, Mc Lean, Va.), at 37° C. in a 5% CO2 humidified atmosphere. The human glioblastoma multiforme cell line SJGBM2 was cultured in DMEM (Invitrogen) supplemented with 10% fetal calf serum, 2 mM L-glutamine and antibiotics. SJGBM2 cell line was a kind gift from Dr. Peter J. Houghton (St. Jude Children's Research Hospital, Memphis, Tenn., USA).
(§2) […] For the experiments aimed at assessing the enhancing effect of 43 on TMZ-induced tumor growth inhibition, the methylating agent was added to cell cultures 15 min after 43 was used at concentrations non-toxic, and capable of abrogating PARP activity.
(§3) Long-term survival was analyzed by colony-formation assay. Exponentially growing melanoma and glioblastoma cells were seeded into 6-well plates at a density of 2×10^2/well and left to attach for 18 h; cells were then treated with the compounds under study and cultured to allow colony formation. After 10 days, colonies (defined as a cluster of >50 cells) were fixed and stained with rhodamine B basic violet 10 (ICN Biomedicals Inc., Aurora, Ohio, USA). Untreated or treated lymphoma cells were seeded at 1 cell/well in 96-well plates (flat-bottomed) and cultured. After 10 days, colonies were counted to determine cloning efficiency, using an optical microscope (Tentori 2001b).
(§4) Cell line chemosensitivity to TMZ, 43 or to the drug combination was evaluated in terms of IC50, i.e. the concentration of the drug expressed in μM, capable of inhibiting colony-forming ability by 50%. The IC50 was calculated on the regression line in which the number of colonies was plotted vs the drug concentration.

[3] = test system: human glioblastoma multiforme cell line SJGBM2; test: colony-formation assay, SJGBM2; assay type: cell-based
Method: as §1
Cells were treated with 43 (0.1-20 μM) or with TMZ (1-250 μM). For the experiments aimed at assessing the enhancing effect of 43 on TMZ-induced tumor growth inhibition, the methylating agent was added to cell cultures 15 min after 43 was used at concentrations non-toxic, and capable of abrogating PARP activity.
as §3, §4

[4] = test system: lymphoma cell line L5178Y; test: colony-formation assay, L5178Y; assay type: cell-based, murine
Method: as §1, §2, §3, §4

B16 melanoma [5] = test: B16 melanoma growing subcutaneously in B6D2F1 mice; assay type: in vivo, mouse; details: 3 days
Method: 43 was administered 15 min before TMZ administration. Control mice were always injected with drug vehicles.
The efficacy of TMZ±43 treatment was also evaluated on melanoma growing subcutaneously (sc). For this purpose B16 cells (2.5×10^5) were inoculated sc in the flank of the animal. Tumors were measured with calipers and volume calculated according to the formula: [(width)^2×length]/2. Treatment was started 6 days after challenge, when the volume of tumor nodules reached 100-150 mm^3. Melanoma growth was monitored, by measuring tumor nodules every 3 days for 3 weeks.

B16 melanoma [6] = test: B16 melanoma growing at the CNS site (intracranial); assay type: in vivo, mouse
Method: (§5) The intracranial transplantation procedure was performed as previously described (Tentori 2002b). Cells (10^4 in 0.03 ml of RPMI-1640) were injected intra-cranially (ic) through the center-middle area of the frontal bone to a 2 mm depth, using a 0.1 ml glass microsyringe and a 27-gauge disposable needle.
(§6) Murine melanoma B16 or lymphoma L5178Y cells (10^4) were injected ic into male B6D2F1 (C57BL/6×DBA/2) mice. Human glioblastoma multiforme SJGBM2 cells (10^6) were injected ic into male athymic BALB/c mice (nu/nu genotype). Before tumor challenge, animals were anesthetized with ketamine (100 mg/kg) and xylazine (5 mg/kg) in 0.9% NaCl solution (10 ml/kg/ip).
(§7) Mice were monitored for mortality for 90 days. Median survival times (MST) were determined and the percentage of increase in lifespan (ILS) was calculated as: {[MST (days) of treated mice/MST (days) of control mice]−1}×100. Efficacy of treatments was evaluated by comparing survival curves between treated and control groups.
(§8) To assess the ability of different treatments to reduce tumor growth, histological examination of the brains was performed using additional animals that were not considered for the analysis of survival. Mice were sacrificed at different time points after tumor challenge, selected within the MST range of untreated tumor-bearing animals.

[7] = crossing of the blood-brain barrier; assay type: in vivo; details: systemic administration
[8] = test system: SJGBM2 human glioblastoma multiforme; test: orthotopic human glioblastoma multiforme xenograft in nude mice; assay type: in vivo, mouse; details: with respect to controls or single agents
Method: as §5, §6, §7, §8

[9] = drug toxicity / maximal tolerated dose in intact mice; details: TMZ ip + 43 iv, for 3 days
Method: Drug toxicity was evaluated by treating intact mice (5/group) with the compounds under study, used as single agents or in combination. Control groups were treated with vehicles only. Body weight was measured three times weekly and survivals were recorded for 3 weeks after the last treatment. Toxicity was assessed on the basis of apparent drug-related deaths and net body weight loss [i.e., (initial weight−lowest weight/initial weight)×100%]. Death was considered drug-related when occurring within 7 days after the last treatment.
43 was dissolved in 70 mM PBS without potassium, and injected intravenously (iv) at different doses (40-200 mg/kg) to establish the maximal tolerated dose.
TMZ was dissolved in dimethyl-sulfoxide (40 mg/ml), diluted in saline (5 mg/ml) and administered ip at doses commonly used for in vivo preclinical studies (Friedman 1995; Middleton 2000; Kokkinakis 2001). Experiments were performed using different doses and schedules of TMZ+43 to determine the maximal tolerated dose of the drug combination. 43 was administered 15 min before TMZ administration. Control mice were always injected with drug vehicles.

Structure (SMILES)	cardiac protection (infarct size) [1]	intrinsic growth inhibition as single agent ([2]; 1-25 μM 43, B16)	maximal enhancement of TMZ-induced growth inhibition ([2]; B16, 0.6 μM 43)	susceptibility to antiproliferative effect with respect to SJGBM2 and L5178Y ([2]; B16, 43 as single agent)	inhibition at 1.2 µM ([2]; Mus musculus, B16, 43 at 1.2 μM, read-out: growth inhibition with respect to control)	intrinsic growth inhibition as single agent ([3]; 1-25 μM 43, SJGBM2)	maximal increase of TMZ growth inhibitory effect ([3]; SJGBM2, 1.2 μM 43)	intrinsic growth inhibitory effect ([3]; SJGBM2, 2.5 μM 43)	intrinsic growth inhibition as single agent ([4]; 1-25 μM 43, L5178Y)	maximal increase of TMZ growth inhibitory effect ([4]; L5178Y, 1.2 μM 43)	intrinsic growth inhibitory effect ([4]; L5178Y, 2.5 μM 43)	tumor growth, 43 only (B16 melanoma [5]; 43 40 mg/kg/day iv, single agent)	enhancement of the antitumor effects of TMZ (B16 melanoma [5]; TMZ 100 mg/kg/day ip + 43 40 mg/kg/day iv, P <0.0001)	tumor infiltration in the brain (histology) (B16 melanoma [6])	blood-brain barrier crossing [7]	survival of tumor bearing mice [8]	highest tolerable dose of the drug combination [9]
CN1CCN(Cc2ccc3c(c2)-c2n[nH]c(=O)c4cccc(c24)O3)CC1 [Compound 43, 10-(4-Methyl-piperazin-1-ylmethyl)-2H-7-oxa-1,2-diaza-benzo[de]anthracen-3-one]	significant cardiac protection	some intrinsic growth inhibition	10 fold	more susceptible	18 ± 3%	some intrinsic growth inhibition	~4 fold	intrinsic growth inhibitory effect	some intrinsic growth inhibition	~10 fold	intrinsic growth inhibitory effect	did not affect tumor growth	significantly enhanced	pronounced and diffuse tumor infiltration	capable of crossing the blood-brain barrier	–	–
Cn1nnc2c(C(N)=O)ncn2c1=O [TMZ, temozolimide]	–	–	–	–	–	–	–	–	–	–	–	–	–	limited but multifocal infiltration	–	completely ineffective	100 mg/kg/day
